Experiment in all cases: NCI-60 cell line screen, 48 h
For assay [1], the system named is K-562 leukemia.
For assay [2], the system named is MCF7 breast.
The test system of assay [3] is NCI-H23 lung.
Assay [4] has as its system 786-0 renal.
Assay [5] deals with HL-60(TB) leukemia.
In assay [6] the test system is KM12 colon.
Assay [7] deals with COLO 205 colon.
In assay [8] the test system is T-47D breast.

Drawing on PubChem BioAssay (NCI), this text covers TGI and GI50 for 16 molecules.

SMILES strings stand for the structures.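 48-hour exposure; five concentrations; linearly interpolated endpoints. The concentration for 50% growth inhibition is given as GI50. TGI: total growth inhibition.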

Turning to `COC1=C(Br)C(O)C2(C=C1Br)CC(C(=O)NCCCCNC(=O)C1=NOC3(C=C(Br)C(OC)=C(Br)C3O)C1)=NO2` (stereo not drawn), the TGI was 55.4 µM in assay [1]; 87.4 µM in assay [2]; above 100 µM in assay [3]; above 100 µM in assay [4]; 47.4 µM in assay [5]; 27.3 µM in assay [6]. Further, the TGI in assay [7] came to 30.9 µM; in assay [8], 62.9 µM.
On to `CCC(C)[C@H](NC(=O)NC(=O)NC(=O)CI)C(=O)OC` (stereo partly drawn), for which the GI50 is 2.03 µM in assay [1]; 3.02 µM in assay [2]; 16.3 µM in assay [3]; 11.3 µM in assay [4]; 1.6 µM in assay [5]; 16.6 µM in assay [6]. Besides, the GI50 in assay [7] is 1.77 µM; in assay [8], 10 µM. Besides, the TGI came out at 4.48 µM in assay [1]; 12.9 µM in assay [2]; 35.8 µM in assay [3]; 23.4 µM in assay [4]; 3.4 µM in assay [5]; 33.2 µM in assay [6]. The TGI in assay [7] is 3.6 µM; in assay [8] it was 34.8 µM.
Regarding `COc1ccc(CNC(C)C(=O)O)cc1` (stereo not drawn), the TGI in assay [1], in assay [2], in assay [3], in assay [4], in assay [5] and in assay [6] was above 100 µM throughout. The TGI in assay [7] and in assay [8] was above 100 µM in each case.
Turning to `NC(=S)N/N=C/c1ccc(N)cn1`, the TGI was above 10 µM in assay [1]; above 10 µM in assay [2]; above 8.9 µM in assay [3]; above 10 µM in assay [4]; 5.44 µM in assay [5]; above 10 µM in assay [6]. The results for the TGI in assay [7] and in assay [8] were 8.03 µM and above 10 µM, respectively.
Consider `CCCC[n+]1c(/C=C\c2c(OC)cc(OC)cc2OC)ccc2ccccc21`, for which the GI50 was 0.294 µM in assay [1]; 0.494 µM in assay [2]; 0.779 µM in assay [3]; 2.84 µM in assay [4]; 0.241 µM in assay [5]; 0.345 µM in assay [6]. Further, the GI50 in assay [7] is 0.332 µM; in assay [8] it was 0.205 µM. The TGI in assay [1] is above 38.6 µM; in assay [2], 4.73 µM; in assay [3], 8.17 µM; in assay [4], 13 µM; in assay [5] it was 1.39 µM; in assay [6], 1.59 µM. The TGI in assay [7] turned out to be 1.19 µM; in assay [8], 2.06 µM.
`Cc1cccc2nc3cccc(C(=O)NCCNCCNCCNC(=O)c4cccc5nc6cccc(C)c6nc45)c3nc12`: the GI50 in assay [1] was below 0.01 µM; in assay [2], below 0.01 µM; in assay [3] it was below 0.012 µM; in assay [4] it was below 0.0333 µM; in assay [5], below 0.0139 µM; in assay [6] it was below 0.01 µM. Also, the GI50 is below 0.01 µM in assay [7] and below 0.0123 µM in assay [8]. Also, the TGI in assay [1] was 9.37 µM; in assay [2], above 33 µM; in assay [3], 0.938 µM; in assay [4], 7.74 µM; in assay [5], 1.12 µM; in assay [6], 3.42 µM. The TGI in assay [7] turned out to be 0.7 µM; in assay [8], 8.67 µM.
As to `c1ccc(Nc2nc(-c3ccccn3)cs2)nc1`, the GI50 is 0.413 µM in assay [1]; 0.508 µM in assay [2]; 0.972 µM in assay [3]; 0.344 µM in assay [4]; 0.392 µM in assay [5]; 0.381 µM in assay [6]. In addition, the GI50 in assay [7] was 0.411 µM; in assay [8], 0.698 µM. For the same molecule, the TGI in assay [1] was above 57.2 µM; in assay [2], above 100 µM; in assay [3], above 32.7 µM; in assay [4] it was above 38.2 µM; in assay [5] it was 3.01 µM; in assay [6], 15.9 µM. Moreover, the values for the TGI in assay [7] and in assay [8] were 17.5 µM and above 100 µM, respectively.
With `COc1ccc2c(Cc3c4ccccc4cc4ccccc34)cncc2c1O`, the TGI was 12.8 µM in assay [1]; above 38.2 µM in assay [2]; 85.3 µM in assay [3]; 23.4 µM in assay [4]; 8.36 µM in assay [5]; 8.69 µM in assay [6]. Moreover, the TGI in assay [7] is 34.4 µM; in assay [8], above 71.7 µM.
For `CC[C@@H](C(=O)[C@H](C)[C@H](O)[C@@H](C)[C@H]1O[C@H]([C@@H](CC)C(=O)O)CC[C@H]1C)C1O[C@]2(C=C[C@@H](O)[C@]3(CC[C@@](C)([C@H]4CC[C@](O)(CC)[C@H](C)O4)O3)O2)[C@H](C)C[C@@H]1C` (stereo partly drawn), the GI50 in assay [1] was 0.223 µM; in assay [2] it was 0.148 µM; in assay [3] it was 0.296 µM; in assay [4], 1.26 µM; in assay [5], 0.06 µM; in assay [6], 0.723 µM. Moreover, the GI50 was 0.203 µM in assay [7] and 0.125 µM in assay [8]. In addition, the TGI was found to be 7.06 µM in assay [1]; 11.9 µM in assay [2]; 7.24 µM in assay [3]; 21.2 µM in assay [4]; 0.506 µM in assay [5]; 12.9 µM in assay [6]. In addition, the TGI in assay [7] is 4.68 µM; in assay [8], 16.7 µM.
As for `COc1cccc(-n2cc(-c3nc(Nc4cc(C)[nH]n4)c4ccccc4n3)nn2)c1`, the GI50 in assay [1] is 2.59 µM; in assay [2], 4.76 µM; in assay [3], 6.28 µM; in assay [4], 2.89 µM; in assay [5], 2.85 µM; in assay [6], 1.69 µM. Also, the GI50 was 6.8 µM in assay [7] and 2 µM in assay [8]. Besides, the TGI in assay [1] amounted to 14.7 µM; in assay [2], 14 µM; in assay [3] it was 22.4 µM; in assay [4] it was 9.85 µM; in assay [5], 14.5 µM; in assay [6], 7.39 µM. Further, the TGI amounted to 15.9 µM in assay [7] and 9.61 µM in assay [8].
`Nc1ccccc1NC(=O)c1ccc(CN2CCC/C(=C\c3ccccn3)C2=O)cc1`: the GI50 in assay [1] was 0.414 µM; in assay [2], 0.797 µM; in assay [3], 2.11 µM; in assay [4], 2.71 µM; in assay [5], 0.467 µM; in assay [6], 1.53 µM. Further, the values for the GI50 in assay [7] and in assay [8] were 1.15 µM and 0.806 µM, respectively. The TGI is above 100 µM in assay [1]; above 100 µM in assay [2]; above 100 µM in assay [3]; 30.2 µM in assay [4]; 6.48 µM in assay [5]; above 100 µM in assay [6]. The TGI in assay [7] was determined as 3.9 µM; in assay [8], 9.59 µM.
Consider `CC(C)=CCC1=C(OCC(=O)O)C(=O)c2ccccc2C1=O`, for which the TGI was above 100 µM in assay [1]; 96.3 µM in assay [2]; above 100 µM in assay [3]; above 100 µM in assay [4]; 36.1 µM in assay [5]; above 100 µM in assay [6]. The TGI in assay [7] and in assay [8] was above 100 µM each time.
`O=C1CCCCC=C1C[N+](=O)[O-]`: the GI50 is 22.5 µM in assay [1]; 20 µM in assay [2]; 27.5 µM in assay [3]; 17.6 µM in assay [4]; 14 µM in assay [5]; 45.1 µM in assay [6]. In addition, the GI50 in assay [7] was 11.6 µM; in assay [8], 26.6 µM. For the same molecule, the TGI in assay [1] is above 100 µM; in assay [2] it was 55.1 µM; in assay [3], 69.9 µM; in assay [4], 39.6 µM; in assay [5] it was above 100 µM; in assay [6], above 100 µM. Moreover, the values for the TGI in assay [7] and in assay [8] were 39.7 µM and 88.1 µM, respectively.
As for `O=[N+]([O-])c1ccc(Sc2nc(Cl)nc(NC3CCCC3)n2)cc1`, the GI50 in assay [1] is 5.89 µM; in assay [2], above 10 µM; in assay [3] it was above 10 µM; in assay [4] it was above 10 µM; in assay [5], above 10 µM; in assay [6] it was above 10 µM. The GI50 in assay [7] and in assay [8] was above 10 µM in each case. Besides, the TGI in assay [1], in assay [2], in assay [3], in assay [4], in assay [5] and in assay [6] was above 10 µM in each case. In addition, the TGI in assay [7] and in assay [8] was above 10 µM throughout.
Turning to `COc1ccc2c(c1)C1OCCNC1CC2` (stereo not drawn), the TGI in assay [1], in assay [2], in assay [3], in assay [4], in assay [5] and in assay [6] was above 100 µM each time. Further, the TGI in assay [7] and in assay [8] was above 100 µM in each case.
As for `Nc1nc2c(nnn2C2OC(CO)C(O)C2O)c(=O)[nH]1` (stereo not drawn), the GI50 is 2.06 µM in assay [1]; 1.42 µM in assay [2]; 1.54 µM in assay [3]; 0.941 µM in assay [4]; 0.546 µM in assay [5]; 0.97 µM in assay [6]. Further, the GI50 in assay [7] is 0.393 µM; in assay [8], 2.87 µM. Moreover, the TGI was above 100 µM in assay [1]; above 100 µM in assay [2]; above 100 µM in assay [3]; above 100 µM in assay [4]; above 100 µM in assay [5]; above 46.8 µM in assay [6]. In addition, the results for the TGI in assay [7] and in assay [8] were 1.67 µM and above 100 µM, respectively.
